Data reported in patent publication US20200017496A1 (priority 2017, published 2020).
Where two headings read alike, the source gives them in different places.

Legend:
[1] = test system: Klebsiella pneumoniae (KPN) isolates; test: MIC of compounds alone and combined with antibacterials, broth microdilution (CLSI); format: cell-based; details: for MIC: Klebsiella pneumoniae
How it was run: (§1)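 Log-phase bacteria at a final 5·10^5 CFU/mL in cation-adjusted Mueller-Hinton broth were incubated 16-20 h at 35° C in ambient air with compound alone or with an antibacterial. MIC was the lowest concentration preventing visible growth; combination MIC of the antibacterial was read at each compound concentration.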

[2] = test system: Citrobacter freundii (CFR) isolates; test: as above; format: cell-based; details: for MIC: Citrobacter freundii, ATB alone, read-out: MIC
How it was run: as §1

CC(C)(O/N=C(\C(=O)N[C@@H]1C(=O)N2C(C(=O)[O-])=C(C[n+]3ccccc3)CS[C@H]12)c1csc(N)n1)C(=O)O [CAZ, Ceftazidime]
0.5 µg/mL: MIC ATB in combination ([1]; KPN 6299, AF1 @ 4 μg/mL) | MIC ATB in combination ([1]; KPN 131119, AF1 @ 4 μg/mL) | MIC ATB in combination ([1]; KPN 190128, AF1 @ 4 μg/mL) | MIC ATB in combination ([1]; KPN 190270, AF1 @ 4 μg/mL) | MIC ATB in combination ([1]; KPN UFR24, AF1 @ 8 μg/mL) | MIC ATB in combination ([1]; KPN UFR25, AF1 @ 4 μg/mL) | MIC ATB in combination ([1]; KPN UFR27, AF1 @ 8 μg/mL) | MIC ATB in combination ([1]; KPN UFR81, AF1 @ 8 μg/mL) | MIC ATB in combination ([1]; KPN UFR219, AF1 @ 4 μg/mL) | MIC ATB in combination ([1]; KPN UFR221, AF1 @ 4 μg/mL) | MIC ([1]; strain KPN UFR23 (TEM-1, SHV-1, OXA-48), ATB alone, read-out: MIC) | MIC ([1]; strain KPN UFR80 (SHV-11, DHA-1, OXA-1), ATB alone, read-out: MIC) | MIC ATB in combination ([2]; CFR UFR11, AF1 @ 8 μg/mL) | MIC ATB in combination ([2]; CFR UFR250, AF1 @ 4 μg/mL) | MIC ATB in combination ([2]; strain CFR UFR254, antibacterial combined with AF1 @ 4 μg/mL)
4 µg/mL: MIC ATB in combination ([1]; KPN UFR27, AF1 @ 4 μg/mL) | MIC ATB in combination ([1]; KPN UFR67, AF1 @ 8 μg/mL) | MIC ATB in combination ([1]; KPN UFR68, AF1 @ 4 μg/mL) | MIC ATB in combination ([1]; KPN UFR77, AF1 @ 4 μg/mL) | MIC ATB in combination ([1]; KPN UFR222, AF1 @ 8 μg/mL) | MIC ATB in combination ([2]; CFR UFR146, AF1 @ 4 μg/mL) | MIC ATB in combination ([2]; strain CFR UFR253, antibacterial combined with AF1 @ 4 μg/mL)
1 µg/mL: MIC ATB in combination ([1]; KPN 160143, AF1 @ 4 μg/mL) | MIC ATB in combination ([1]; KPN 260251, AF1 @ 4 μg/mL) | MIC ATB in combination ([1]; KPN 700603, AF1 @ 4 μg/mL) | MIC ATB in combination ([1]; KPN BAA-1898, AF1 @ 4 μg/mL) | MIC ATB in combination ([1]; KPN UFR24, AF1 @ 4 μg/mL) | MIC ATB in combination ([1]; KPN UFR68, AF1 @ 8 μg/mL) | MIC ATB in combination ([1]; KPN UFR79, AF1 @ 8 μg/mL) | MIC ATB in combination ([1]; KPN UFR220, AF1 @ 8 μg/mL) | MIC ATB in combination ([1]; KPN UFR227O, AF1 @ 8 μg/mL)
<=0.25 μg/mL: MIC ATB in combination ([1]; KPN 6299, AF1 @ 8 μg/mL) | MIC ATB in combination ([1]; KPN 110376, AF1 @ 4 μg/mL) | MIC ATB in combination ([1]; KPN 110376, AF1 @ 8 μg/mL) | MIC ATB in combination ([1]; KPN 131119, AF1 @ 8 μg/mL) | MIC ATB in combination ([1]; KPN 160143, AF1 @ 8 μg/mL) | MIC ATB in combination ([1]; KPN 190128, AF1 @ 8 μg/mL) | MIC ATB in combination ([1]; KPN 190270, AF1 @ 8 μg/mL) | MIC ATB in combination ([1]; KPN 190425, AF1 @ 4 μg/mL) | MIC ATB in combination ([1]; KPN 190425, AF1 @ 8 μg/mL) | MIC ATB in combination ([1]; KPN 190551, AF1 @ 4 μg/mL) | MIC ATB in combination ([1]; KPN 190551, AF1 @ 8 μg/mL) | MIC ATB in combination ([1]; KPN 200047, AF1 @ 4 μg/mL) | MIC ATB in combination ([1]; KPN 200047, AF1 @ 8 μg/mL) | MIC ATB in combination ([1]; KPN 200327, AF1 @ 4 μg/mL) | MIC ATB in combination ([1]; KPN 200327, AF1 @ 8 μg/mL) | MIC ATB in combination ([1]; KPN 260251, AF1 @ 8 μg/mL) | MIC ATB in combination ([1]; KPN 260376, AF1 @ 4 μg/mL) | MIC ATB in combination ([1]; KPN 260376, AF1 @ 8 μg/mL) | MIC ATB in combination ([1]; KPN 270077, AF1 @ 4 μg/mL) | MIC ATB in combination ([1]; KPN 270077, AF1 @ 8 μg/mL) | MIC ATB in combination ([1]; KPN 700603, AF1 @ 8 μg/mL) | MIC ATB in combination ([1]; KPN ARA, AF1 @ 4 μg/mL) | MIC ATB in combination ([1]; KPN ARA, AF1 @ 8 μg/mL) | MIC ATB in combination ([1]; KPN BAA-1898, AF1 @ 8 μg/mL) | MIC ATB in combination ([1]; KPN LIB, AF1 @ 4 μg/mL) | MIC ATB in combination ([1]; KPN LIB, AF1 @ 8 μg/mL) | MIC ATB in combination ([1]; KPN UFR22_O, AF1 @ 4 μg/mL) | MIC ATB in combination ([1]; KPN UFR22_O, AF1 @ 8 μg/mL) | MIC ATB in combination ([1]; KPN UFR23, AF1 @ 4 μg/mL) | MIC ATB in combination ([1]; KPN UFR23, AF1 @ 8 μg/mL) | MIC ATB in combination ([1]; KPN UFR25, AF1 @ 8 μg/mL) | MIC ATB in combination ([1]; KPN UFR28, AF1 @ 4 μg/mL) | MIC ATB in combination ([1]; KPN UFR28, AF1 @ 8 μg/mL) | MIC ATB in combination ([1]; KPN UFR65, AF1 @ 8 μg/mL) | MIC ATB in combination ([1]; KPN UFR66, AF1 @ 8 μg/mL) | MIC ATB in combination ([1]; KPN UFR80, AF1 @ 4 μg/mL) | MIC ATB in combination ([1]; KPN UFR80, AF1 @ 8 μg/mL) | MIC ATB in combination ([1]; KPN UFR215, AF1 @ 4 μg/mL) | MIC ATB in combination ([1]; KPN UFR215, AF1 @ 8 μg/mL) | MIC ATB in combination ([1]; KPN UFR216, AF1 @ 4 μg/mL) | MIC ATB in combination ([1]; KPN UFR216, AF1 @ 8 μg/mL) | MIC ATB in combination ([1]; KPN UFR217, AF1 @ 4 μg/mL) | MIC ATB in combination ([1]; KPN UFR217, AF1 @ 8 μg/mL) | MIC ATB in combination ([1]; KPN UFR219, AF1 @ 8 μg/mL) | MIC ATB in combination ([1]; KPN UFR221, AF1 @ 8 μg/mL) | MIC ATB in combination ([2]; CFR UFR10, AF1 @ 4 μg/mL) | MIC ATB in combination ([2]; CFR UFR10, AF1 @ 8 μg/mL) | MIC ATB in combination ([2]; CFR UFR248, AF1 @ 4 μg/mL) | MIC ATB in combination ([2]; CFR UFR248, AF1 @ 8 μg/mL) | MIC ATB in combination ([2]; CFR UFR249, AF1 @ 4 μg/mL) | MIC ATB in combination ([2]; CFR UFR249, AF1 @ 8 μg/mL) | MIC ATB in combination ([2]; CFR UFR250, AF1 @ 8 μg/mL) | MIC ATB in combination ([2]; strain CFR UFR254, antibacterial combined with AF1 @ 8 μg/mL)
256 µg/mL: MIC ([1]; BAA1898)
2 µg/mL: MIC ATB in combination ([1]; KPN 140513, AF1 @ 8 μg/mL) | MIC ATB in combination ([1]; KPN UFR65, AF1 @ 4 μg/mL) | MIC ATB in combination ([1]; KPN UFR77, AF1 @ 8 μg/mL) | MIC ATB in combination ([1]; KPN UFR79, AF1 @ 4 μg/mL) | MIC ATB in combination ([1]; KPN UFR81, AF1 @ 4 μg/mL) | MIC ATB in combination ([1]; KPN UFR220, AF1 @ 4 μg/mL) | MIC ATB in combination ([1]; KPN UFR227O, AF1 @ 4 μg/mL) | MIC ([1]; strain KPN UFR22_O (TEM-1, SHV-1, OXA-48), ATB alone, read-out: MIC) | MIC ATB in combination ([2]; CFR UFR146, AF1 @ 8 μg/mL) | MIC ATB in combination ([2]; strain CFR UFR253, antibacterial combined with AF1 @ 8 μg/mL)
16 µg/mL: MIC ATB in combination ([1]; KPN 140513, AF1 @ 4 μg/mL) | MIC ATB in combination ([1]; KPN UFR67, AF1 @ 4 μg/mL) | MIC ATB in combination ([1]; KPN UFR76, AF1 @ 4 μg/mL) | MIC ATB in combination ([1]; KPN UFR76, AF1 @ 8 μg/mL) | MIC ([1]; strain KPN UFR79 (DHA-1, OXA-1), ATB alone, read-out: MIC) | MIC ([1]; strain KPN UFR221 (TEM-1, SHV-11, CTX-M-14, DHA-1), ATB alone, read-out: MIC)
0.25 µg/mL: MIC ([1]; strain KPN LIB (SHV-11, OXA-48), ATB alone, read-out: MIC)
32 µg/mL: MIC ATB in combination ([1]; KPN 260252, AF1 @ 4 μg/mL) | MIC ATB in combination ([1]; KPN UFR78, AF1 @ 8 μg/mL) | MIC ([1]; strain KPN 200327 (TEM-1, SHV-1, CTX-M-15, OXA-1), ATB alone, read-out: MIC) | MIC ([1]; strain KPN UFR77 (CMY-2), ATB alone, read-out: MIC) | MIC ATB in combination ([2]; CFR UFR83, AF1 @ 4 μg/mL) | MIC ([2]; strain CFR UFR146 (TEM-1, KPC-2))
8 µg/mL: MIC ATB in combination ([1]; KPN 260252, AF1 @ 8 μg/mL) | MIC ATB in combination ([1]; KPN UFR66, AF1 @ 4 μg/mL) | MIC ATB in combination ([1]; KPN UFR222, AF1 @ 4 μg/mL) | MIC ATB in combination ([2]; CFR UFR11, AF1 @ 4 μg/mL) | MIC ATB in combination ([2]; CFR UFR83, AF1 @ 8 μg/mL) | MIC ([2]; strain CFR UFR11 (TEM-1, OXA-1, OXA-48))
